Tests used:
[1] = Determination of the concentration of compounds in plasma and brain following oral dosing; type: in vivo, Male Sprague-Dawley rats; conditions: rats, 10 mg/kg orally by gavage; samples at 0.5, 3 and 8 hours; value Cmax
Description: Male Sprague-Dawley rats were used in this study (2 to 4 per experiment). The animals were fasted overnight prior to dosing and throughout the duration of the study but were permitted water ad libitum. Each rat received a 10 mg/kg (5 mL/kg) dose orally by gavage. At 0.5, 3 and 8 hours after drug administration, three animals were put under deep anesthesia using isoflurane and euthanized by bleeding (cardiac puncture) under deep isoflurane anesthesia. EDTA blood samples and brain tissue will be collected from each rat. Upon collection, the samples were promptly placed in an ice bath, and within 2 hours after sample collection, the blood was centrifuged at about 4°C. The resulting brain and plasma samples were placed in clean glass tubes and stored in a freezer until analysis. The plasma samples were assayed for parent compound using appropriate liquid chromatography - mass spectrometry procedures. The results are given in table 2 along with results obtained using the two reference compounds A and B, and illustrate the high brain concentrations attainable with the compounds of the invention.

[2] = biological target: T1, human dopamine D2L receptors (long isoform) (Homo sapiens, UniProt P14416); assay: Receptor binding study, displacement of [125I] iodospiperone from HEK-293 cell membranes; conditions: 0.01 nM [125I] iodospiperone, HEK-293 membranes, 25°C, 60 minutes, read-out: Ki D2
T1 construct: expressed in transfected cells; membranes used
Description: (§1) The substance to be tested was either dissolved in methanol/Chremophor® (BASF-AG) or in dimethyl sulfoxide and then diluted with water to the desired concentration.
(§2) Each assay mixture was run in triplicate.
The incubation buffer contained 50 mM tris, 120 mM NaCl, 5 mM KCl, 2 mM CaCl2, 2 mM MgCl2 and 0.1% bovine serum albumin. The buffer was adjusted to pH 7.4 with HCl.
(§3) After having been incubated at 25°C for 60 minutes, the assay mixtures were filtered through a Wathman GF/B glass fiber filter under vacuum using a cell collecting device. The filters were transferred to scintillation viols using a filter transfer system. After 4 ml of Ultima Gold® (Packard) have been added, the samples were shaken for one hour and the radioactivity was then counted in a Beta-Counter (Packard, Tricarb 2000 or 2200CA). The cpm values were converted into dpm using a standard quench series and the program belonging to the instrument.
(§4) The inhibition curves were analyzed by means of iterative nonlinear regression analysis using the Statistical Analysis System (SAS) which is similar to the "LIGAND" program described by Munson and Rodbard.

[3] = biological target: T2, human dopamine D3 receptors (Homo sapiens, UniProt P35462); assay: Receptor binding study, displacement of [125I]-iodosulpride from HEK-293 cell membranes; conditions: for Ki: 0.1 nM [125I]-iodosulpride, HEK-293 membranes, 25°C, 60 minutes; for Selectivity [Ki(D2)/Ki(D3)]: ratio Ki(D2)/Ki(D3)
T2 construct: expressed in transfected cells; membranes used
Description: as §1, §2
The incubation buffer contained 50 mM tris, 120 mM NaCl, 5 mM KCI, 2 mM CaCl2, 2 mM MgCl2 and 0.1% bovine serum albumin, 10 µM quinolone and 0.1% ascorbic acid (prepared fresh daily). The buffer was adjusted to pH 7.4 with HCl.
as §3, §4

T1 sequence (P14416 whole entry, canonical isoform): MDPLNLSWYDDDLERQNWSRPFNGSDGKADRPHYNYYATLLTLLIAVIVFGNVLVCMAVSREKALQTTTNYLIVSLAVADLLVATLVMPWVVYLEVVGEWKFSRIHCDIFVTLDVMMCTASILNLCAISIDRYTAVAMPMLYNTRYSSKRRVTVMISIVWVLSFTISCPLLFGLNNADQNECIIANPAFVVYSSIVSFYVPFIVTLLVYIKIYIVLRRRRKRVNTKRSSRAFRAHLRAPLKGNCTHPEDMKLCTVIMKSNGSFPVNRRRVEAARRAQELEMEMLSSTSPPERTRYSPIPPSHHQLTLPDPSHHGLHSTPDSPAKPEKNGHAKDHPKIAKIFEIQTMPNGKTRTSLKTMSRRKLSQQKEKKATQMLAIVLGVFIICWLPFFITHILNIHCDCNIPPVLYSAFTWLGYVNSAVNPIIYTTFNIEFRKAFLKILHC
T2 sequence (P35462 whole entry): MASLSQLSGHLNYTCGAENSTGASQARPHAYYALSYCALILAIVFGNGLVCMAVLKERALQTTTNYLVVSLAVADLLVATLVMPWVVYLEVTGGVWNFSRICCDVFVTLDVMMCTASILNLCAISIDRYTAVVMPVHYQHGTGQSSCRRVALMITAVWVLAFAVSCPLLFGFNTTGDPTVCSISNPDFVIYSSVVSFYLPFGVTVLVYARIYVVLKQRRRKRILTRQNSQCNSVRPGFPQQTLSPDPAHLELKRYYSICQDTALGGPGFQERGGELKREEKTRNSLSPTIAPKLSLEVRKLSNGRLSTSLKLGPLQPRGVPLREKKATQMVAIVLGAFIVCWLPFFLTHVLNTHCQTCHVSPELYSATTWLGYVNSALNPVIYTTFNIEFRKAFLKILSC

Compound | Brain level [1] [ng/g] | Ki [2] [nM] | Ki [3] [nM] | Selectivity [Ki(D2)/Ki(D3)] [3]
Cn1c(N)nnc1SCCCN1CCN(c2cc(C(C)(C)C)nc(C(C)(C)C)n2)CC1 [A*, reference compound] | 387 | – | – | –
Cn1c(N)nnc1SCCCN1CCN(c2cc(C(F)(F)F)nc(C(C)(C)C)n2)CC1 [B*, reference compound] | 143 | – | – | –
Cc1nnc(SCCCN2CCN(c3cc(C(C)(C)C)nc(C(C)(C)C)n3)CC2)n1C.Cl [Example 1, 2-tert-Butyl-4-{4-[3-(4-methyl-5-methyl-4H-[1,2,4]triazol-3-ylsulfanyl)-propyl]-piperazin-1-yl}-6-tert-butyl-pyrimidine hydrochloride] | 559 | 176 | 1.1 | 160
Cl.Cn1cnnc1SCCCN1CCN(c2cc(C(C)(C)C)nc(C(C)(C)C)n2)CC1 [Example 2, 2-tert-Butyl-4-{4-[3-(4-methyl-4H-[1,2,4]triazol-3-ylsulfanyl)-propyl]-piperazin-1-yl}-6-tert-butyl-pyrimidine hydrochloride] | 1835 | 127 | 1.7 | 75
CCCc1cc(N2CCN(CCCSc3nncn3C)CC2)nc(C(C)(C)C)n1.O=C(O)/C=C/C(=O)O [Example 3, 2-tert-Butyl-4-{4-[3-(4-methyl-4H-[1,2,4]triazol-3-ylsulfanyl)-propyl]-piperazin-1-yl}-6-propyl-pyrimidine fumarate] | 1000 | 412 | 3.3 | 125
CCCc1cc(N2CCN(CCCSc3nnc(C)n3C)CC2)nc(C(C)(C)C)n1.Cl [Example 4, 2-tert-Butyl-4-{4-[3-(4-methyl-5-methyl-4H-[1,2,4]triazol-3-ylsulfanyl)-propyl]-piperazin-1-yl}-6-propyl-pyrimidine hydrochloride] | 483 | 216 | 2.6 | 83
Cc1nnc(SCCCN2CCN(c3cc(C(F)(F)F)nc(C(C)(C)C)n3)CC2)n1C.Cl [Example 5, 2-tert-Butyl-4-{4-[3-(4-methyl-5-methyl-4H-[1,2,4]triazol-3-ylsulfanyl)-propyl]-piperazin-1-yl}-6-trifluoromethyl-pyrimidine hydrochloride] | 904 | 311 | 3.7 | 84
Cl.Cn1cnnc1SCCCN1CCN(c2cc(C(F)(F)F)nc(C(C)(C)C)n2)CC1 [Example 6, 2-tert-Butyl-4-{4-[3-(4-methyl-4H-[1,2,4]triazol-3-ylsulfanyl)-propyl]-piperazin-1-yl}-6-trifluoromethyl-pyrimidine hydrochloride] | 2384 | 469 | 3.5 | 134
Cl.Cn1cnnc1SCCCN1CCN(c2cc(C(F)F)nc(C(C)(C)C)n2)CC1 [Example 7, 2-tert-Butyl-4-{4-[3-(4-methyl-4H-[1,2,4]triazol-3-ylsulfanyl)-propyl]-piperazin-1-yl}-6-difluoromethyl-pyrimidine hydrochloride] | 1430 | 418 | 2.9 | 146
Cc1nnc(SCCCN2CCN(c3cc(C(F)F)nc(C(C)(C)C)n3)CC2)n1C.Cl [Example 8, 2-tert-Butyl-4-{4-[3-(4-methyl-5-methyl-4H-[1,2,4]triazol-3-ylsulfanyl)-propyl]-piperazin-1-yl}-6-difluoromethyl-pyrimidine hydrochloride] | – | 401 | 1.8 | 224

Reference: EP1484330B1, “Triazole compouds suitable for treating disorders that respond to modulation of the dopamine D3 receptor” (Abbott GmbH & Co. KG, priority 2003, dated 2004)
